Test results taken from patent publication US5849777A, “Cell differentiation induction with mevalonate and mevalonolactone derivatives” (University of New Mexico, priority 1995, dated 1998).
Read-outs that look alike come from different tables or passages of the source. Values belong to the molecule of their own block, whether it stands above or below them.

Experiments:
Canine glioma cells [1] = experiment: effect on tumor cell generation time, canine glioma; type: cell-based; settings: 10 nM
Method: The cells were harvested every 72 hours after the controls had reached 85% confluency. Generation time (Tg) was determined as the number of hours required for the cell population to double.
Mean of triplicate determinations. Canine glioma cells were grown under conditions to promote exponential growth characteristics; 2×10^5cells in a T-25 flask. The cells were harvested every 72 hours after the controls had reached approximately 85% confluency. The drug was added at the initiation of culture in DMSO, the control cultures had just DMSO. The drug concentration was adjusted with DMSO so that the final concentration of DMSO was always 0.5%.

Canine glioma cells [2] = experiment: inhibition of thymidine incorporation (I50%); type: cell-based; settings: Canis lupus familiaris, Glioma cell
Method: (§1) Cytotoxicity was determined as a function of simple survival (T50 %), adherence (ADH50 %) and thymidine incorporation (I50%) of the cells.
Estimates of the I50% of the various drugs tested on thymidine incorporation of canine glioma cells in culture.

[3] = system: Human peripheral blood leukocytes; experiment: IgG production by human peripheral blood leukocytes (HPBL) in vitro; type: cell-based; settings: for Inhibitory Concentration (concentration inhibiting nonspecific IgG production below normal production): HPBL, additional 90 h culture
Method: Human peripheral blood leukocytes were cultured in a standard tissue culture medium. Aliquots of these cultured cells (1,000,000 cells/ml medium) were cultured for 6 hours, and the specified amount of Formula II compound was added; the cells were then cultured for an additional 90 hours. Sheep red blood cells (SRBC) conditioned with class-specific (IgG) goat anti-human antiserum (1:400) for 2 hours; then guinea pig complement (2%) for 2 hours were conjugated to Protein A as described in detail in Radioimaging and Radioimmunotherapy, Eds. S. W. Burchiel and B. A. Rhodes, Elsevier Science Publishing; New York, 1983, pp. 125-127, incorporated herein by reference.
1. Concentration inhibiting nonspecific IgG production below normal production.

[4] = molecular target: T1, rat liver HMG-COA reductase (Rattus norvegicus, UniProt P51639); experiment: inhibition of rat liver HMG-CoA reductase activity; type: biochemical
T1 construct: rat liver HMG-COA reductase activity; from tissue; host or cells: rat liver
T1 sequence (P51639 1-887): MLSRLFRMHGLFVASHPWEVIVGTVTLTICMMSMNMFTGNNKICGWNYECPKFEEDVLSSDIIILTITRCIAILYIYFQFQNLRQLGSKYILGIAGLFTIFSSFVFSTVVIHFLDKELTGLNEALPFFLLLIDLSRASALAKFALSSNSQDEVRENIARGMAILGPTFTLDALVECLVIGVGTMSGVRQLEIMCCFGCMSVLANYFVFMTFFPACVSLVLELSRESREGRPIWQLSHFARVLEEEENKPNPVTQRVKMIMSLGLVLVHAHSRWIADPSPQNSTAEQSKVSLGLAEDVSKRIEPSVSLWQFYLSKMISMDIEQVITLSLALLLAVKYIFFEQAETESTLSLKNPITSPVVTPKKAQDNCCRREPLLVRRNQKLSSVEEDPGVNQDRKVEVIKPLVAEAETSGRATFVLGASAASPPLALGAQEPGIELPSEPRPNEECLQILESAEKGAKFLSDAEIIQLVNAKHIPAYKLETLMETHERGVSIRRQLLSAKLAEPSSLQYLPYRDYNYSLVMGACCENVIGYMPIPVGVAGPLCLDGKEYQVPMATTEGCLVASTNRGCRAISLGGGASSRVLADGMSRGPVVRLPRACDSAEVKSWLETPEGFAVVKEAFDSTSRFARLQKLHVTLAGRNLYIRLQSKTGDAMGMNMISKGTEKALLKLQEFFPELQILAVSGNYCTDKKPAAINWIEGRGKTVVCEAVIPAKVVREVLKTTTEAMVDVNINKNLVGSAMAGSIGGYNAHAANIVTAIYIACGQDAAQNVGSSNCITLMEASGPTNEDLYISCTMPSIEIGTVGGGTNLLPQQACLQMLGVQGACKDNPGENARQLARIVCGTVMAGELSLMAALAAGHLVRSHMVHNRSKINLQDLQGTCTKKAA
Excerpt: While a number of the compounds of the Formula I are known HMG-CoA reductase inhibitors, there is no apparent correlation between HMG-CoA reductase inhibitory activity and promotion of differentiation activity according to the invention. […] Accordingly, useful guidelines for selecting compounds having optimal differentiation-promoting activity according to the invention broadly comprise selecting compounds of the Formula I having the specified stereochemical configuration and an in vitro immunological activity as set forth in the in vitro assay of Example II, of at least about 3-fold.

Canine glioma cells [5] = experiment: cytotoxicity as simple survival (T50%); type: cell-based; settings: Canis lupus familiaris, Glioma cell, read-out: T 50%
Method: as §1
(§2) Estimates of the 50% inhibitory concentrations of the various drugs tested on simple survival (T50%) and adherence (ADH50%) for canine glioma cells.

Canine glioma cells [6] = experiment: inhibition of adherence (ADH50%); type: cell-based; settings: Canis lupus familiaris, Glioma cell
Method: as §1, §2

[7] = system: human colon carcinoma cell line (LS-174); experiment: effect on tumor cell generation time, human colon carcinoma; type: cell-based
Method: The procedure of Example VA, above, was repeated except a human colon carcinoma cell line (LS-174) was used instead of the canine glioma cell line.
Mean of triplicate determinations. LS-174 cells (human colon carcinoma) were grown under conditions to promote exponential growth characteristics; 2×10^5 cells in a T-25 flask. The cells were harvested every 72 hours after the controls had reached approximately 85% confluency. The drug was added at the initiation of culture in DMSO, the control cultures had just DMSO. The drug concentration was adjusted with DMSO so that the final concentration of DMSO was always 0.5%.

CG (canine glioma) cells = experiment: tumor-specific antibody production in vivo (anti-CG IgG titer); set-up: species or system dog
Excerpt: Titer of CG-specific antibody was compared to control [no administration of compound IIa' and no implantation of CG (canine glioma) cells]. […] This increase in titer continued with time until tumor regression was noted by independent measurement (NMR evaluation, below).
The results are particularly striking as the experimental tumor (brain glioma) is generally considered to enjoy a privileged position beyond the blood/brain barrier, substantially beyond the reach of the humoral immune system. Experimental protocols are described in detail below (FIGS. 7-9, Example VII).

CG tumor = experiment: chromium-release cell-mediated lympholysis (CML) vs CG tumor; type: in vivo, dog
Excerpt: Cellular immune response reflected the results reported in III, 1 above. […] This also is in the absence of CG antigen exposure. […] Thus both cellular and humoral immunity appear to be modulatable in the absence of antigen by the compounds of the instant invention.

canine glioma cells [8] = experiment: in vivo tumor inhibition: nude rat model; set-up: species or system Nude Rats (canine glioma cells)
Method: Fifty four Nude Rats (Harlan) were injected in the right flank with 5×10^6 canine glioma cells. Animals at the time of injection were between 52 and 63 days old and weighed approximately 200 g. The rats were divided into 7 groups, each group having a total number of 7 rats except for the control group, which totalled 12 animals. Compound IIc' was administered to the experimental animals at one of the following dose for each experimental group: 100 μg/kg, 10 μg/kg, 1 μg/kg, 0.1 μg/kg, 0.01 μg/kg and 0.001 μg/kg (phosphate buffer saline, M, W, F, I.P.). The control animals were injected with PBS (phosphate buffered saline) only. The volume of each injection was 100 μl. The injections of drug were simultaneously begun with injection of tumor cells. The animals were injected with the appropriate dosage of drug (1 ng/kg to […]) by I.P. injection and tumor length, width and depth were measured using caliphers each Monday, Wednesday and Friday (M, W, F) morning for approximately 9 weeks. Each point on the graphs represents the total of all rats for each group. […] The data were normalized for the greater number of control animals by multiplying the total tumor volume for the control animals by 7/12.

[9] = read-out: IC50 (concentration for 50% inhibition of rat liver HMG-COA reductase activity), Table I

SMILES: CC(C)c1nc(-c2ccccc2)n(-c2ccc(F)cc2)c1/C=C/[C@H](O)C[C@@H](O)CC(=O)O (relative stereo) [Compound IIe']
contact inhibition as the cells approached confluency (Canine glioma cells [1]): showed evidence of contact inhibition | % CHANGE (Tg) (Canine glioma cells [1]; 72 × 2 h): 129% | Tg (Canine glioma cells [1]; 72 × 2 h): 24.0 h | % CHANGE (Tg) (Canine glioma cells [1]; 72 × 3 h): 180% | Tg (Canine glioma cells [1]; 72 × 3 h (three passages), control 18.6 h): 33.4 h | % CHANGE (Tg) (Canine glioma cells [1]; 72 × 4 h): 155% | Tg (Canine glioma cells [1]; 72 × 4 h): 28.9 h | % CHANGE (Tg) (Canine glioma cells [1]; 72 h): 136% | Tg (Canine glioma cells [1]; 72 h): 25.3 h | slowing of the growth rate (Canine glioma cells [1]; three passages): 1.8 fold | IC50 (Canine glioma cells [2]; 24 h exposure, read-out: I50%): 50 nM | IC50 (Canine glioma cells [2]; 48 h exposure, read-out: I50%): 75 nM | IC50 (Canine glioma cells [2]; 72 h exposure, read-out: I50%): 80 nM | IC50 (Canine glioma cells [2]; 96 h exposure, read-out: I50%): 50 nM | IC50 (Canine glioma cells [2]; Table V, all exposure times, read-out: I50% (thymidine incorporation into DNA)): 50 to 80 nM | Stimulation of IgG Production ([3]; 1&100 nM): 1990% | activation at 0.0001 µM ([3]; Homo sapiens, Leukocyte, 90 h, 100 pM, read-out: Stimulation of IgG Production): < 350% | IC50 ([4]; Example IV, read-out: IC50 (HMG-CoA reductase)): 3 nM | IC50 [4, 9]: 3 nM | IC50 (Canine glioma cells [5]; 24 h exposure): 750 nM | IC50 (Canine glioma cells [5]; 72 h exposure): 800 nM | IC50 (Canine glioma cells [5]; 96 h exposure): 900 nM | IC50 (Canine glioma cells [6]; 24 h exposure): 75 nM | IC50 (Canine glioma cells [6]; 72 h exposure): 70 nM | IC50 (Canine glioma cells [6]; 96 h exposure): 75 nM | % CHANGE (Tg) ([7]; 10 nM, 72 × 2 h): 400% | Tg ([7]; 10 nM, 72 × 2 h): 106.2 h | % CHANGE (Tg) ([7]; 10 nM, 72 × 3 h): 416% | Tg ([7]; 10 nM, 72 × 3 h (three passages), control 26.5 h): 110.3 h | % CHANGE (Tg) ([7]; 10 nM, 72 × 4 h): 414% | Tg ([7]; 10 nM, 72 × 4 h): 109.6 h | % CHANGE (Tg) ([7]; 10 nM, 72 h): 320% | Tg ([7]; 10 nM, 72 h): 84.9 h | prolongation of generation time ([7]; 10 nM, three passages): 4.16 fold | generation time after drug withdrawn ([7]; drug withdrawn, two passages): returned to control levels

SMILES: CC(C)c1nc(-c2ccccc2)n(-c2ccc(F)cc2)c1/C=C/[C@H](O)C[C@@H](O)CC(=O)O [Compound IIc']
IC-50% TITER (ANTI-CG) (CG (canine glioma) cells; treatment 2+ months, tumor regressed): BASELINE VALUES | slope "M" (LINEAR REGRESSION OF TOXICITY), Y = "M"X + B (CG tumor; December 14, 1987): 0.05 | slope "M" (LINEAR REGRESSION OF TOXICITY), Y = "M"X + B (CG tumor; February 9, 1988): 0.35 | slope "M" (LINEAR REGRESSION OF TOXICITY), Y = "M"X + B (CG tumor; February 17, 1988): 0.75 | slope "M" (LINEAR REGRESSION OF TOXICITY), Y = "M"X + B (CG tumor; March 31, 1988): 0.05 | optimal dose in vitro (immune stimulation) ([3]; HPBL assay): 100 pM | Inhibitory Concentration (concentration inhibiting nonspecific IgG production below normal production) [3]: none found | immune stimulant (in words) ([3]; see Examples above): potent immune stimulant | optimal dose in vivo, equivalent concentration with uniform distribution (canine glioma cells [8]; 100 ng/kg): 250 pM | most effective dosage for inhibition of canine glioma cells (canine glioma cells [8]; I.P., M, W, F, approx. 9 weeks (FIG. 3)): 100 ng/kg | cytostatic activity (canine glioma cells [8]; higher doses, 10 and 100 μg/kg I.P.): Little or no cytostatic activity | cytostatic activity (canine glioma cells [8]; lowest dose, 1 ng/kg I.P.): Little or no cytostatic activity | IC50 [4, 9]: 22 nM

IC50 ([4]; Table I): 3150 nM
SMILES: CC(C)c1nc(-c2ccccc2)n(-c2ccc(F)cc2)c1/C=C/[C@H](O)C[C@H](O)CC(=O)O [IIa]
CG-specific antibody (CG (canine glioma) cells; at tumor regression, within a few days): reverted to baseline control levels | CG-specific antibody (IgG) production (CG (canine glioma) cells; following implantation of the CG tumor cells): increased significantly | titers of antibody over the control antibody titer (CG (canine glioma) cells; in the absence of antigen): titers of antibody increased over the control antibody titer significantly | CML reactivity (CG tumor; after 5 weeks, tumor totally regressed): returned to baseline | CG-specific CML (CG tumor; after 14 days of administration, I.P., M, W, F): only baseline levels of CG-specific CML were present | CML reactivity (CG tumor; after a few days of exposure to the CG tumor implant): large increase in the CML reactivity | CML (CG tumor; after an additional 2 months, absence of CG antigen exposure): significant increase in CML | Inhibitory Concentration (concentration inhibiting nonspecific IgG production below normal production) [3]: none found
